In US9888688B2, “Tetrazolinone compounds and applications thereof” (Sumitomo Chemical Company, Limited, priority 2013, dated 2018):

Key:
Assay type in all cases: in vivo
[1] = test system: cotton aphid (Aphis gossypii); assay: Cotton aphid control test on cucumber (Test Example 32); details: 144 h, 20 mL sprayed on cucumber, after 6 days
Experimental: In the present Test Example, a water dilution containing a surfactant prepared by adjusting so as to contain a predetermined concentration (500 ppm) of the present compound was used as a test chemical solution. Thirty (30) heads of cotton aphid (Aphis gossypii) (including adults and larvae) were released on the leaves of cucumber grown in a polyethylene cup until the first true leaf was developed. Next day, 20 mL of the above test chemical solution was sprayed. After 6 days, the number of the surviving insects was counted and the control value was calculated by the following equation. Control value (%)={1−(Cb×Tai)/(Cai×Tb)}×100 wherein symbols in the equation represent the followings: Cb: Number of insects before spraying chemical solution in untreated area; Cai: Number of surviving insects in untreated area; Tb: Number of insects before spraying chemical solution in treated area; and Tai: Number of surviving insects in treated area.

[2] = test system: cabbage moth (Plutella xylostella); assay: Cabbage moth larvae mortality test on cabbage (Test Example 31); details: 120 h, 500 ppm spray on cabbage 20 mL/cup, third instar larvae, 25° C., after 5 days
Experimental: (§1) In the present Test Example, a water dilution containing a surfactant prepared by adjusting so as to contain a predetermined concentration (500 ppm) of the present compound was used as a test chemical solution.
Cabbage was planted in each of polyethylene cups and grown until the third true leaf or the fourth true leaf was developed. The above test chemical solution was sprayed over the cabbage (Brassicae oleracea) at a rate of 20 mL/cup. After drying the chemical solution, the polyethylene cup having a volume of 400 mL was covered. Ten (10) heads of third instar larvae of cabbage moth (Plutella xylostella) were released in the cup and the cup was covered with a Tetron fabric. The cup was held at 25° C. and, after 5 days, the number of the surviving insects was counted and the mortality of insects was calculated by the following equation.
Mortality (%)=(number of dead insects/number of test insects)×100

[3] = test system: common house mosquito (Culex pipiens pallens); assay: Common house mosquito larvae mortality test (Test Example 30); details: 192 h, 3.5 ppm active ingredient in water, last instar larvae, after 8 days
Experimental: as §1
The above test chemical solution (0.7 mL) was added to 100 mL of deionized water to adjust the concentration of an active ingredient to 3.5 ppm. Twenty (20) heads of last instar larvae of common house mosquito (Culex pipiens pallens) were released in the solution and the number of dead insects was counted after 8 days.
Mortality was determined by the following equation. Mortality (%)=(number of dead insects/number of test insects)×100

[4] = test system: wheat leaf blotch fungus (Septoria tritici); assay: Wheat leaf blotch control test, spray before inoculation (Test Examples 6, 9, 10, Comparative Test Example); details: 500 ppm foliar spray, wheat APOGEE, inoculated after 4 days
[5] = test system: barley net blotch fungus (Pyrenophora teres); assay: Barley net blotch control test, foliar spray on barley (Test Examples 4, 16, 17, 18); details: 12.5 ppm foliar spray, barley NISHINOHOSHI, inoculated after 2 days

Structure (SMILES) | pest or weed control at 500 ppm [1] [%] | also measured
Cc1cccc(-c2ccc(OCc3c(C)cccc3-n3nnn(C)c3=O)c(C(F)(F)F)c2)n1 [Present Compound 59] | ≥ 90 | –
Cc1ccnc(-c2ccc(OCc3c(C4CC4)cccc3-n3nnn(C)c3=O)c(C)c2)n1 [Present Compound 92] | – | mortality at 500 ppm [2]: ≥ 90%
Cc1ccnc(-c2ccc(OCc3c(Cl)cccc3-n3nnn(C)c3=O)c(C(F)(F)F)c2)n1 [Present Compound 134] | ≥ 90 | –
CCc1cccc(-n2nnn(C)c2=O)c1COc1cc(C)c(-c2ccc(F)cn2)cc1C [Present Compound 215] | – | mortality at 3.5 ppm [3]: 100%
Cc1cc(-c2ncc(F)cn2)ccc1OCc1c(C)cccc1-n1nnn(C)c1=O [Present Compound 236] | ≥ 90 | mortality at 3.5 ppm [3]: 100%
Cc1cccc(-c2ccc(OCc3ccccc3-n3nnn(C)c3=O)c(C(F)(F)F)c2)n1 [Present Compound 127] | ≥ 90 | –
Cc1cc(-c2cccc(C(C)C)n2)ccc1OCc1c(C)cccc1-n1nnn(C)c1=O [Present Compound 149] | ≥ 90 | –
Cn1nnn(-c2ccccc2COc2ccc(-c3ccccc3)cc2)c1=O [1-methyl-4-[2-(4-phenyl-phenoxymethyl)-phenyl]-1,4-dihydrotetrazol-5-one, reference compound] | – | area of lesion spots relative to that on an untreated plant [4]: ≥ 70%
Cc1ccc(-c2ccc(OCc3c(C)cccc3-n3nnn(C)c3=O)c(C)c2)nn1 [Present Compound 234] | ≥ 90 | –
Cn1nnn(-c2ccccc2COc2ccc(-c3ccccn3)cc2)c1=O [Present Compound 223] | – | area of lesion spots relative to that on an untreated plant [4]: ≤ 30%
CCc1cccc(-n2nnn(C)c2=O)c1COc1ccc(-c2nccc(C)n2)cc1C(F)(F)F [Present Compound 138] | ≥ 90 | –
CCc1cccc(-n2nnn(C)c2=O)c1COc1ccc(-c2nccc(C)n2)cc1C [Present Compound 93] | – | mortality at 3.5 ppm [3]: 100%
CCOc1cccc(-n2nnn(C)c2=O)c1COc1ccc(-c2ccc(Cl)cn2)cc1C [Present Compound 29] | ≥ 90 | –
COc1ccncc1-c1cc(C)c(OCc2c(C)cccc2-n2nnn(C)c2=O)cc1C [Present Compound 192] | ≥ 90 | –
CCOc1cccc(-n2nnn(C)c2=O)c1COc1ccc(-c2cccc(Cl)n2)cc1C [Present Compound 41] | ≥ 90 | –
Cc1cccc(-n2nnn(C)c2=O)c1COc1cc(Cl)c(-c2ccccn2)cc1Cl [Present Compound 210] | ≥ 90 | –

Structure (SMILES) | pest or weed control at 500 ppm [1] [%] | also measured
CCOc1cccc(-n2nnn(C)c2=O)c1COc1ccc(-c2cccc(C)n2)cc1C [Present Compound 53] | – | area of lesion spots relative to that on an untreated plant [5]: ≤ 30%
COc1cc(-c2cccc(C)n2)ccc1OCc1c(C)cccc1-n1nnn(C)c1=O [Present Compound 155] | ≥ 90 | –
CCc1cccc(-c2ccc(OCc3c(OC)cccc3-n3nnn(C)c3=O)c(C)c2)n1 [Present Compound 45] | ≥ 90 | –
Cc1cc(-c2ccc(F)cn2)c(C)cc1OCc1c(C2CC2)cccc1-n1nnn(C)c1=O [Present Compound 219] | ≥ 90 | –
CCc1cccc(-c2ccc(OCc3c(C)cccc3-n3nnn(C)c3=O)c(C(F)(F)F)c2)n1 [Present Compound 131] | ≥ 90 | –
Cc1cccc(-c2ccc(OCc3c(C)cccc3-n3nnn(C)c3=O)c(C#N)c2)n1 [Present Compound 156] | ≥ 90 | –
Cc1cccc(-c2ccc(OCc3c(C)cccc3-n3nnn(C)c3=O)c(C)c2)n1 [Present Compound 48] | – | mortality at 500 ppm [2]: ≥ 90%
Cc1ccnc(-c2ccc(OCc3c(C)cccc3-n3nnn(C)c3=O)c(C)c2)c1 [Present Compound 20] | ≥ 90 | –
Cc1cc(-c2cccc(C#N)n2)ccc1OCc1c(C2CC2)cccc1-n1nnn(C)c1=O [Present Compound 116] | ≥ 90 | mortality at 3.5 ppm [3]: 100%
Cc1ccnc(-c2ccc(OCc3ccccc3-n3nnn(C)c3=O)c(C(F)(F)F)c2)n1 [Present Compound 137] | ≥ 90 | –
C=C(C)c1cccc(-c2ccc(OCc3c(C)cccc3-n3nnn(C)c3=O)c(C)c2)n1 [Present Compound 148] | ≥ 90 | –
Cc1cc(-c2ncc(F)cn2)c(C)cc1OCc1c(C)cccc1-n1nnn(C)c1=O [Present Compound 238] | ≥ 90 | –
Cc1cc(-c2ncc(Cl)cn2)c(F)cc1OCc1c(C)cccc1-n1nnn(C)c1=O [Present Compound 242] | – | mortality at 3.5 ppm [3]: 100%
CCOc1cccc(-n2nnn(C)c2=O)c1COc1ccc(-c2ccccn2)cc1C [Present Compound 8] | ≥ 90 | –
Cc1cc(-c2ccc(F)cn2)c(F)cc1OCc1c(C)cccc1-n1nnn(C)c1=O [Present Compound 195] | ≥ 90 | –
CCc1cccc(-c2ccc(OCc3ccccc3-n3nnn(C)c3=O)c(C(F)(F)F)c2)n1 [Present Compound 130] | ≥ 90 | –
